The values that follow come from patent US20240315994A1, “SMALL MOLECULE MODULATORS OF FERROPTOSIS” (ARPEGGIO BIOSCIENCES, INC., priority 2021, published 2024).

Each structure is given as a SMILES string.

The data set has as its system HT-1080 fibrosarcoma cells. In words: HT-1080 single-concentration cell viability screen (Cell Titer Glo). The class given is cell-based. To be noted: 10 μM compound, 48 hours, duplicate, fraction of control. The source says:
To identify potential covalent inhibitors of GPX4, we screened a panel of 294 diverse small molecules from the Enamine covalent inhibitor library (Catalog No. CSL-10480-0-Z-10, Enamine, Monmouth, NJ). Each compound contains either a chloroacetamide or acrylamide moiety theoretically capable of forming a covalent bond with a selenocysteine. The small molecule compounds were selected for a diversity of backbone structures. The screening protocol used the cell viability assay Cell Titer Glo® (available from Promega, Madison, WI). Cell Titer Glo® is a luminescent cell viability that determines the number of viable cells in culture by quantifying ATP, which indicates the presence of metabolically active cells. Briefly, HT-1080 fibrosarcoma cells were plated 24 hours prior to treatment with 10 µM of each compound in the screening panel. Cell Titer Glo® was used to read out cell viability after 48 hours of compound exposure. Data was collected in duplicate.
To determine whether similar molecules could offer other starting points for a medicinal chemistry campaign, we screened 95 additional compounds that contain a similar base structure to that of 8216. Briefly, HT-1080 fibrosarcoma cells were treated with 10 µM of a compound for 48 hours and cell viability was measured by Cell Titer Glo®. Data was collected in duplicate. […]
Background: Cellular ATP, detected with luciferase, serves as a proxy for viable cell number.
Take `O=C(CCl)N(Cc1ccc(F)cc1)c1nc(-c2ccccc2)cs1` [Compound Z147647938]: the “Average relative cell viability” value stood at 0.000936.

Regarding `CC(C)n1nccc1CN(CC1CCCC1)C(=O)CCl` [Compound Z3837300268], the “Average relative cell viability” value is recorded as 0.00828.

On to `O=C(CCl)N(Cc1ccccc1)Cc1cc2n(n1)CCCC2` [Compound Z4323310732], for which the “Average relative cell viability” value was determined as 0.05332.

As to `O=C(CCl)N(Cc1cccc2ccoc12)C1CCCOCC1` (stereo not shown) [Compound Z4323385212], the “Average relative cell viability” value is listed as 0.003768.

Regarding `CCN1CCCC(CN(C)C(=O)CCl)C1c1cnn(C)c1` (stereo not shown) [Compound Z3766270794], the “Average relative cell viability” value was determined as 0.003474.

With `O=C(CCl)N(CCc1ccccc1)Cc1ccccc1` [Compound Z56891378], the “Average relative cell viability” value was 0.001872.

Turning to `O=C(CCl)N(Cc1ccco1)C1CCS(=O)(=O)C1` (stereo not shown) [Compound Z147652330], the “Average relative cell viability” value stood at 0.7459.

Take `O=C(CCl)N(Cc1cnn(-c2ccccc2)c1)C1CC1` [Compound Z3629871044]: the “Average relative cell viability” value came out at 0.001764.

`O=C(CCl)N(Cc1ccccc1O)Cc1ccccc1O` [Compound Z3952174992]: the “Average relative cell viability” value is recorded as 0.1517.

Consider `O=C(CCl)N(Cc1nc(C2CCCCCC2)no1)C1CC1` [Compound Z3766269910], for which the “Average relative cell viability” value is 0.002904.

`O=C(CCl)N(Cc1ccccc1)Cc1ccc(F)cc1` [Compound Z381549666]: the “Average relative cell viability” value turned out to be 0.001836.

On to `COCCN(Cc1ccccc1)C(=O)CCl` [Compound Z147647648], for which the “Average relative cell viability” value is listed as 0.1007.

For `O=C(CCl)N(Cc1cnn(C2CCCCC2)c1)CC1(c2ccccc2)CC1` [Compound Z4425211258], the “Average relative cell viability” value is listed as 0.001938.

Regarding `CC1(N(Cc2ccc3c(c2)OCO3)C(=O)CCl)CCCC1` [Compound Z3766260223], the “Average relative cell viability” value turned out to be 0.002238.

Take `N#Cc1ccc(CN(C(=O)CCl)C2CC2)c(F)c1` [Compound Z3952175125]: the “Average relative cell viability” value was found to be 0.8876.

For `CN(Cc1nc2c(cnn2C)c(=O)[nH]1)C(=O)CCl` [Compound Z3337549802], the “Average relative cell viability” value came out at 1.034.

As for `O=C(CCl)N(Cc1ccccc1)c1ccccc1` [Compound Z199424090], the “Average relative cell viability” value is on record as 0.00039.

With `Cc1cc(CN(Cc2ccn(C)n2)C(=O)CCl)ccc1F` [Compound Z3837152585], the “Average relative cell viability” value is 0.007686.

As for `Cl.O=C(CCl)N(Cc1cn2ccccc2n1)C1CC1` [Compound Z4283095766], the “Average relative cell viability” value came to 0.9342.

On to `COC1CCC(N(Cc2cc(C)oc2C)C(=O)CCl)CC1` (stereo not shown) [Compound Z4323386801], for which the “Average relative cell viability” value worked out at 0.01527.

`O=C(CCl)N(CC1=CCCCC1)Cc1cc(-c2ccc(Cl)cc2)on1` [Compound Z4425210932]: the “Average relative cell viability” value is 0.001926.

`O=C(CCl)N(CC1=CCCOC1)Cc1ccccc1` [Compound Z3952175509]: the “Average relative cell viability” value is 0.03047.

In the case of `O=C(CCl)N(Cc1ccc2c(c1)CCC2)CC1(CCO)CC1` [Compound Z4323486432], the “Average relative cell viability” value was 0.004428.

As for `O=C(CCl)N(Cc1ccccc1)c1nc2c(s1)CCCC2` [Compound Z147647668], the “Average relative cell viability” value turned out to be 0.005838.

`O=C(CCN(Cc1ccc2c(c1)CCOC2)C(=O)CCl)NC1CCCC1` [Compound Z4425210882]: the “Average relative cell viability” value is reported as 0.1465.

On to `Cc1nn(C)c(C)c1CN(C(=O)CCl)C1CCCCC1C` (stereo not shown) [Compound Z4323324870], for which the “Average relative cell viability” value came to 0.488.

Consider `Cn1nnc(CN(C(=O)CCl)C2CCCCCCC2)n1` [Compound Z4323320274], for which the “Average relative cell viability” value is recorded as 0.002922.

For `Cc1ccc(CN(Cc2cnn(C)c2)C(=O)CCl)cc1C` [Compound Z3837366035], the “Average relative cell viability” value amounted to 0.531.

Regarding `CCOC(=O)c1sc(N(Cc2ccccc2)C(=O)CCl)nc1C` [Compound Z56837076], the “Average relative cell viability” value was found to be 0.004698.

Take `O=C(CCl)N(Cc1nc2ccsc2c(=O)[nH]1)C1CC1` [Compound Z3217399415]: the “Average relative cell viability” value was found to be 1.255.

Turning to `Cc1cc(F)ccc1N(Cc1ccnn1C(C)C)C(=O)CCl` [Compound Z3837096793], the “Average relative cell viability” value came out at 0.1701.

`C=CCN1CCC(N(Cc2ccc(CC)o2)C(=O)CCl)CC1` [Compound Z4323341765]: the “Average relative cell viability” value worked out at 0.7008.

On to `COc1cc(CN(C(=O)CCl)C2CCCOC2)ccc1C` (stereo not shown) [Compound Z4323349920], for which the “Average relative cell viability” value is recorded as 0.002028.

With `O=C(CCl)N(Cc1ccccc1)CC1(O)CCOC1` (stereo not shown) [Compound Z1687602192], the “Average relative cell viability” value is on record as 0.1445.

Regarding `CC1(C)CC(N(Cc2ccccc2)C(=O)CCl)C(C)(C)O1` (stereo not shown) [Compound Z3766271747], the “Average relative cell viability” value is 0.005616.

With `O=C(CCl)N(Cc1ccccc1)c1nc(-c2ccc(Br)cc2)cs1` [Compound Z56926666], the “Average relative cell viability” value worked out at 0.008622.

Regarding `O=C(CCl)N(Cc1cc(F)ccc1F)CC1CCOCC1` [Compound Z3837255186], the “Average relative cell viability” value turned out to be 0.1331.

With `O=C(CCl)N(Cc1ccc2c(c1)OCCO2)Cc1ncoc1C1CCC1` [Compound Z4425210448], the “Average relative cell viability” value is given as 0.00756.

For the compound `Cc1cc(CN(C(=O)CCl)C2CCCC2)c2ccccc2n1` [Compound Z1562139496], the “Average relative cell viability” value is 0.000174.

As to `Cn1cc(CN(C(=O)CCl)c2ccc(F)cc2)cn1` [Compound Z3766264621], the “Average relative cell viability” value is on record as 0.02152.

As to `COC1(CN(Cc2ccn(C)n2)C(=O)CCl)CCCCC1` [Compound Z3837644318], the “Average relative cell viability” value is 0.7407.

Take `Cc1scc(CN(Cc2ccc3c(c2)OCCCO3)C(=O)CCl)c1C` [Compound Z4425210974]: the “Average relative cell viability” value was found to be 0.001284.

On to `O=C(CCl)N(Cc1ccccc1)c1nc(-c2ccc(F)cc2)cs1` [Compound Z56946047], for which the “Average relative cell viability” value is given as 0.000624.

As to `CC(C)(C)n1nnc(CN(Cc2cccc(C3CC3)c2F)C(=O)CCl)n1` [Compound Z4425210960], the “Average relative cell viability” value came to 0.01925.

On to `CCn1cc(CN(C(=O)CCl)C2CC2)c(C)n1` [Compound Z3887631385], for which the “Average relative cell viability” value stood at 0.7938.

On to `CN(Cc1cnc(N(C)C)nc1)C(=O)CCl` [Compound Z2596884436], for which the “Average relative cell viability” value is 0.4026.

In the case of `COc1ccc(CN(CC2CC(C)=NO2)C(=O)CCl)cc1` (stereo not shown) [Compound Z3837506617], the “Average relative cell viability” value is on record as 0.3267.

Take `COc1ccc(CN(C(=O)CCl)C2CCOC(C)C2)cc1C` (stereo not shown) [Compound Z4323373087]: the “Average relative cell viability” value is 0.0167.

As for `O=C(CCl)N(Cc1cccs1)C1CCS(=O)(=O)C1` (stereo not shown) [Compound Z90122115], the “Average relative cell viability” value was found to be 0.05782.

Regarding `O=C(CCl)N(Cc1cccs1)CC1CCCO1` (stereo not shown) [Compound Z147647920], the “Average relative cell viability” value was 0.04392.

Regarding `COc1nc2ccc(CN(Cc3ccc(F)cc3)C(=O)CCl)cc2s1` [Compound Z4425210756], the “Average relative cell viability” value is reported as 0.00393.

For `CC#CC(=O)N(Cc1ccc(-n2cncn2)cc1)C1CC1` [Compound Z2020497058], the “Average relative cell viability” value was found to be 1.089.

As to `O=C(CCl)N(Cc1ccc(Cn2cccn2)cc1)CC1CC1` [Compound Z3837267295], the “Average relative cell viability” value was 0.002112.

As for `O=C(CCl)N(Cc1cccs1)C1Cc2ccccc2C1` [Compound Z3766262414], the “Average relative cell viability” value worked out at 0.5481.

As for `Cc1csc(CN(C(=O)CCl)c2cccc(F)c2C)n1` [Compound Z3837197646], the “Average relative cell viability” value is given as 0.01316.

With `COc1cccc(CN(CC2CCCO2)C(=O)CCl)c1F` (stereo not shown) [Compound Z3837050450], the “Average relative cell viability” value stood at 0.5148.

Regarding `O=C(CCl)N(Cc1ccccc1)Cc1ccco1` [Compound Z108565162], the “Average relative cell viability” value is 0.005394.

Take `Cc1ccc2sc(N(Cc3ccccc3)C(=O)CCl)nc2c1C` [Compound Z147647684]: the “Average relative cell viability” value worked out at 0.006576.

In the case of `Cc1cc(CN(C(=O)CCl)c2ccc(F)cc2)nn1C` [Compound Z3837055210], the “Average relative cell viability” value is 0.001584.

As to `COc1ccc2nc(CN(Cc3ccc(F)cc3)C(=O)CCl)sc2c1` [Compound Z4425210755], the “Average relative cell viability” value is given as 0.002562.

Regarding `O=C(CCl)N(Cc1ccnn1C1CCC1)C1CC=CCC1` (stereo not shown) [Compound Z4323362848], the “Average relative cell viability” value turned out to be 0.001626.

For `O=C(CCl)N(Cc1ccns1)c1ccc2c(c1)OCCO2` [Compound Z3837046637], the “Average relative cell viability” value is listed as 0.00972.

As to `Cc1cccc(N(Cc2ccccc2)C(=O)CCl)c1` [Compound Z57052885], the “Average relative cell viability” value came to 0.002244.

Turning to `Cn1ccc(N(Cc2ccccc2)C(=O)CCl)n1` [Compound Z4170009630], the “Average relative cell viability” value turned out to be 0.08916.
